Measurements taken from patent US6541483B2, “Acridone-derived compounds useful as antineoplastic and antiretroviral agents” (The United States of America as represented by the …, priority 1996, dated 2003).
Like-named read-outs stand apart in the source and are kept apart here.

What was measured:
[1] = system: HIV-1 in U1 cells; assay: TNF-α stimulated latently infected U1 cells, virus production; assay type: cell-based
Description: (§1) As a model of the late phase events during the HIV-1 replication cycle, U1 cells were used that are latently infected with two copies of HIV-1 proviral DNA. The high level expression of virus production in these U1 cells can be stimulated by certain factors, such as TNF-α. U1 cells were stimulated with TNF-α for 24 hours, after which were added various concentrations of temacrazine, and the cultures were allowed to incubate for 48 additional hours. At that time, the cells were evaluated for viability and for their content of viral protein synthesis and processing, while the cell-free supernatant was evaluated for viral p24 content and for the infectious titer of released virions.
After TNFα induction and temacrazine treatment, cultures were continued for 72 h after which virion-associated p24 and cell viability (XTT dye reduction) were measured.

[2] = system: HIV-1 specific mRNA; assay: Northern blotting of total HIV-1 mRNA in U-1 cells; assay type: cell-based; conditions: TNFα stimulated U-1 cells
From the text: To assess the possibility that temacrazine was regulating HIV-1 mRNA expression, the expression of total HIV-1 mRNA by Northern blotting was examined (FIG. 16).

[3] = molecular target: HIV-1 integrase (Human immunodeficiency virus type 1 group M subtype B, UniProt P04585); assay: 3'-processing and strand transfer with recombinant integrase; assay type: biochemical; parameters: in vitro assay using purified oligomers and recombinant HIV-1 integrase
From the text: (§2) Based on the findings thus far our efforts have focused on biological assays of the temacrazine congener.

[4] = system: HIV-1RF; assay: nude mouse hollow fiber model of HIV-1 replication; assay type: in vivo, nude mice
From the text: The novel mechanism of action of temacrazine and its broad range of activity against HIV-1 and its high therapeutic indexes led us to assess its in vivo and anti-viral properties in a nude mouse hollow fiber model of HIV-1 replication. Briefly, CEM-SS cells are infected with HIV-1RF and placed into hollow fibers and implanted intraperitoneal or subcutaneously into nude mice. […] Similarly, mice are being treated by oral and intravenous administration of temacrazine. Peritoneal washes and serum samples were collected and p24 expression determined by antigen capture. Intraperitoneal administration of temacrazine reduced the amount of detectable p24 in peritoneal washes by 5 to 10 fold independently of the dosage schedule. […] Thus, temacrazine reduces HIV-1 replication in vivo.

[5] = system: HIV-1 proviral DNA formation (LTR/gag); assay: time course assay of proviral DNA formation; assay type: cell-based; conditions: amplified LTR/gag region
[6] = system: U1 cells; assay: viability of U1 cells; assay type: cell-based; conditions: 48 h
Description: as §1, with “virions. […] Cell viability was diminished above 30 nM with these U1 cells.” for “virions.”

[7] = system: HIV-1 virus; assay: direct treatment of HIV-1 virus, infection of CEM cells; assay type: cell-based
Description: (§3) As a result of these preliminary data, additional experiments were carried out to establish the antiviral activity in other cell lines, using a variety of protocols. The preliminary experiments in lymphocytes were confirmed using infected macrophages. Much more extensive experiments were carried out in HIV-1-infected CEM SS leukemia cells. […] However, two derivatives were found which had low antileukemic activity while maintaining high antiviral activity. […] This gives a therapeutic index of more than 3 orders of magnitude. The corresponding therapeutic index for WMC50 is about 100-200, which is quite acceptable. Additional experiments were carried out on WMC-70. […] Further, WMC-70 appears to affect post-transcription events in the virus. […] While the inhibition of integration appears to be the principal mechanism by which this compound exerts its antiviral activity, there are perhaps other mechanisms which are also involved in the therapeutic action of this drug, and by extension, of other antiviral drugs of this class.

[8] = system: attachment of HIV-1RF to CEM-SS cells; assay: attachment of virions to CEM-SS cells (cell-bound p24 ELISA); assay type: cell-based; conditions: Human immunodeficiency virus 1, CEM-SS
From the text: as §2

[9] = system: HIV-1; assay: XTT cytoprotection assay in CEM-SS cells (antiviral EC50); assay type: cell-based
From the text: Briefly, the infected cells in culture are killed by the virus, and the cytotoxicity is detected by the formation of color due to the […] of a formazan dye (XTT) by enzymes released by the dying cells (Weislow et al., J. Natl. Cancer Inst. 81:577-586, 1989). An effective antiviral drug is able to protect the infected cells from cytotoxicity by inhibiting some vital function of the virus. […] FIGS. 4 and 5 show the cytoprotective activity of WMC26 and WMC42. Since many drugs can also be toxic to cells in their own right, a parallel experiment is carried out wherein uninfected cells are treated with the drugs until a concentration is reached where the cells are killed by the action of the drug.
as §3
The antiviral properties of the WMC series of compounds were evaluated. First, all compounds were tested for their ability to inhibit HIV-1 replication in cell culture using the XTT cytoprotection assay. This assay measures the concentration-dependent capacity of compounds to protect CEM-SS cells from the cytopathic effects of HIV-1. […] Thus, temacrazine was the most efficacious compound in the XTT cytoprotection assay. This conclusion was also reached when the compounds were tested for anti-HIV-1 activity against HIV-1ADA in human monocyte/macrophage cultures (Table 1).

[10] = molecular target: HIV-1 reverse transcriptase (Human immunodeficiency virus type 1 group M subtype B, UniProt P04585); assay: reverse transcriptase enzyme activity; assay type: biochemical
From the text: as §2

[11] = molecular target: HIV-1 protease (Human immunodeficiency virus type 1 group M subtype B, UniProt P04585); assay: Pr55gag processing assay with recombinant protease; assay type: biochemical; conditions: enzyme pretreated one hour at 37° C.
Description: However, to insure that the HPLC-based assay (used in Table 1) was providing accurate findings, the action of temacrazine in the Gag processing assay was evaluated. In this assay, purified recombinant HIV-1 protease enzyme was pretreated with the test reagent for one hour at 37° C., and then exposed the recombinant Pr55^gag precursor polyprotein to the treated enzyme.

[12] = 8.5 mg/kg q8h intraperitoneally
[13] = 12.5 mg/kg q12h intraperitoneally
[14] = 25 mg/kg q24h intraperitoneally

## O=c1c2ccccc2n2nnc3ccc(NCCCN4CCN(CCCNc5ccc6nnn7c8ccccc8c(=O)c5c67)CC4)c1c32 [temacrazine]
[1]; 30 min. pulse of cultures
  production of infectious virus following stimulation with TNFα: presented subsequent production of infectious virus
[1]; Human immunodeficiency virus 1, U1 cells, 72 h, read-out: EC50, inhibition of HIV-1 virus replication (virion-associated p24)
  EC50: 10 to 100 nM
[1]; TNF-α 24 h, then drug 48 h
  infectivity of released viral particles (IU/ml): non-infectious
[1]; TNF-α 24 h, then drug 48 h, cell-free supernatant
  concentration at which virus production (p24) was inhibited: below 4 nM
[1]; cells with integrated virus (U1), Western blotting, listed as WMC-70
  processing of Gag precursor polyprotein (Pr55gag) to p24 and p7NC: no p24 can be detected
[2]; 1 nM
  HIV-1 specific mRNA production: decrease in single spliced and unspliced mRNA with no apparent decrease in the multi-spliced mRNA
[2]; 10 and 100 nM
  HIV-1 specific mRNA production: suppressed mRNA production globally
[3]
  IC50: 10 to 100 nM
[3]; read-out: EC50, 3'-processing and strand transfer activity, purified oligomers, recombinant HIV-1 integrase
  EC50: 10 to 100 nM
[4]; [12]
  Peritoneal Wash p24, mean: 460 pg p24
  Serum p24, mean: 1790 pg p24
[4]; [13]
  Peritoneal Wash p24, mean: 190 pg p24
  Serum p24, mean: 1863 pg p24
[4]; [14]
  Peritoneal Wash p24, mean: 593 pg p24
  Serum p24, mean: 2030 pg p24
[4]; intraperitoneal, total 25 mg/kg per day for 6 days
  p24 in the serum: reduced the amount of p24 in the serum
[4]; intraperitoneal, total 25 mg/kg per day for 6 days, any schedule
  reduction of detectable p24 in peritoneal washes: 5 to 10 fold
[5]
  formation of proviral DNA during reverse transcription: did not prevent the formation of proviral DNA
[6]
  concentration above which cell viability was diminished: above 30 nM
[7]
  infectivity of drug-treated HIV-1 virus: appeared to prevent its ability to infect CEM cells
[8]; Table 1, read-out: Attachment ID50
  IC50: > 100000 nM
[8]; Table 1A, read-out: I50 Attachment
  IC50: > 100000 nM
[9]; CEM SS cells
  therapeutic index: more than 3 orders of magnitude
[9]; HIV-1-infected CEM SS leukemia cells
  cytoprotective activity: cytoprotective at very low concentrations
[9]; Human immunodeficiency virus 1, CEM-SS, read-out: EC50 (inhibits the cytotoxic effect of the virus to 50%)
  EC50: < 1 nM
[9]; Human immunodeficiency virus 1, CEM-SS, read-out: XTT Assay EC50
  EC50: 1.1 nM
[9]; Human immunodeficiency virus 1, CEM-SS cells, read-out: EC50 antiviral value, XTT cytoprotection assay
  EC50: 1.1 nM
[10]
  IC50: > 100000 nM
  inhibition of reverse transcriptase: did not inhibit
[10]; read-out: I50 RT Enzyme Activity, rAdT Template/primer
  IC50: > 100000 nM
[10]; read-out: I50 RT Enzyme Activity, rCdG Template/primer
  IC50: > 100000 nM
[11]
  inhibition of protease in Gag processing assay: had no inhibitory effect
